Data taken from US9820943B2, “Micronized amoxicillin” (DSM SINOCHEM PHARMACEUTICALS NETHERLANDS B.V., priority 2013, dated 2017).

Columns and labels:
Format in all cases: physicochemical
[1] = Powder dissolution, USP/NF paddle method with HPLC analysis; conditions: 500 mg in 900 mL water, 37 °C, 75 rpm; for Amoxicillin released in solution Mean: mean of 3; for Amoxicillin released in solution #1: replicate #1; for Amoxicillin released in solution #2: replicate #2; for Amoxicillin released in solution #3: replicate #3
Procedure: Dissolution analysis of amoxicillin trihydrate powder samples was carried out using the USP/NF paddle method at a rotational speed of 75 rpm. Ultrapure ELGA laboratory water (900 mL) was used as dissolution medium. Media were equilibrated to 37.0±0.5° C. prior to dissolution. Amoxicillin trihydrate sample powder (500 mg) was directly added to the dissolution apparatus (Electrolab USP-24, India). Samples were collected at 0, 1, 3, 5, 10, 15, 30, 60 and 90 min, filtered through 0.2 μm filters and analyzed by HPLC. Dissolution profiles were constructed by plotting the percentage amoxicillin released against time.
The HPLC system (Shimadzu Corporation, Kyoto, Japan) comprised of an SCL-10A VP system controller, LC-10AT VP liquid chromatograph, FCV-10AL VP flow control valve, DGU-14A degasser, SIL-10AD VP auto-injector, CTO-10AS VP column oven, SPD-M20A prominence diode array (PDA) detector and data acquisition Class-VP 6.10 software. The HPLC method was adopted from the United States Pharmacopoeia (USP). The method was validated for linearity, precision, accuracy and intra- and inter-day variability. The mobile phase was 50 mM monobasic potassium phosphate:methanol (96:4, v/v, pH 5.0). All analyses were carried out using Lichrospher® 100 RP-18e analytical column (5 μm, Merck KGaA, Darmstadt, Germany) under isocratic conditions at a flow rate of 1.0 mL·min^−1 at 25° C. with 20 μL injection volume. Effluent was monitored at a wavelength of 230 nm. Samples for calibration curve generation were prepared in 50 mM monobasic potassium phosphate:methanol 1:1 (v/v) proportion at a concentration range of 1 to 600 μg·mL^−1.
The three non-micronized (i.e. entries 1-3 of Table 1) and micronized (i.e. entries 4-6 of Table 1) amoxicillin trihydrate samples of Example 1 were subjected to a powder dissolution test (in triplicate) as outlined in the General section.

[2] = Particle size distribution by laser diffraction (Malvern); conditions: trihydrate
Procedure: Particle size distribution values D10, D50, D90 and D100 were determined using laser diffraction applying Malvern equipment. A suitable apparatus for determining D10, D50, D90 and D100 is a Malvern particle sizer 2600 C or a Malvern Zeta Sizer.
(§1) Parameters operated were: • Augar Speed: 5-90 rpm • Primary Air Pressure: 2-8 kg·cm^−2 • Secondary Air Pressure: 4-10 kg·cm^−2 The surface area (in triplicate), average particle size and contact angle (in quadruplicate) were determined as outlined in the General section. The purity of the amoxicillin trihydrate samples was 99.4±0.3% and were void of dichloromethane, isopropanol, pivalic acid and triethyl amine.

[3] = Specific powder surface area by nitrogen gas sorption (BET); conditions: triplicate, trihydrate
Procedure: Specific powder surface area was determined using nitrogen gas sorption (Smartsorb, Smart Instruments, Mumbai, India). Prior to measurements, samples were regenerated by degassing to remove moisture and contamination. The regenerated sample was dipped in liquid nitrogen and the quantity of the adsorbed gas was measured using a thermal conductivity detector and subsequently integrated using an electronic circuit in terms of counts. The instrument was calibrated by injecting a known quantity of nitrogen. The measured parameters were subsequently used to calculate the surface area of the sample by employing the adsorption theories of Brunauer, Emmett and Teller (BET).
as §1

[4] = Contact angle by sessile drop method (water); conditions: ambient conditions, trihydrate
Procedure: Contact angles of amoxicillin trihydrate powder samples were measured by the sessile drop method using an Drop Shape Analyzer instrument (FTA 1000, First Ten Angstrom, Virginia, USA). Powder samples were mounted on double sided adhesive tape adhered to a glass slide and excess powder was removed by tapping the slide. A drop of probe liquid (water) was dispersed onto the sample surface and video images were captured by the FTA image analyzer. The contact angle was calculated by the instrument by fitting a mathematical expression to the shape of the drop followed by calculating the slope of the tangent to the drop at the liquid-solid-vapor interface line. The surface tension of ultrapure ELGA laboratory water was measured to be 73±0.5 mN·m^−1 at 25° C. All measurements were performed in air under ambient conditions and an average of four measurements was reported in the below Examples.
as §1

CC1(C)S[C@@H]2[C@H](NC(=O)[C@H](N)c3ccc(O)cc3)C(=O)N2[C@H]1C(=O)O.O.O.O [entry 1, amoxicillin trihydrate]
Amoxicillin released in solution Mean ([1]; 0 min): 0% | Amoxicillin released in solution #1 ([1]; 0 min): 0% | Amoxicillin released in solution #2 ([1]; 0 min): 0% | Amoxicillin released in solution #3 ([1]; 0 min): 0% | Amoxicillin released in solution Mean ([1]; 1 min, trihydrate): 85.98% | Amoxicillin released in solution #1 ([1]; 1 min, trihydrate): 84.65% | Amoxicillin released in solution #2 ([1]; 1 min, trihydrate): 86.65% | Amoxicillin released in solution #3 ([1]; 1 min, trihydrate): 86.65% | Amoxicillin released in solution Mean ([1]; 3 min, trihydrate): 99.25% | Amoxicillin released in solution #1 ([1]; 3 min, trihydrate): 99.74% | Amoxicillin released in solution #2 ([1]; 3 min, trihydrate): 99.01% | Amoxicillin released in solution #3 ([1]; 3 min, trihydrate): 99.01% | Amoxicillin released in solution Mean ([1]; 5 min, trihydrate): 99.51% | Amoxicillin released in solution #1 ([1]; 5 min, trihydrate): 99.44% | Amoxicillin released in solution #2 ([1]; 5 min, trihydrate): 99.54% | Amoxicillin released in solution #3 ([1]; 5 min, trihydrate): 99.54% | Amoxicillin released in solution Mean ([1]; 10 min, trihydrate): 99.14% | Amoxicillin released in solution #1 ([1]; 10 min, trihydrate): 98.65% | Amoxicillin released in solution #2 ([1]; 10 min, trihydrate): 99.04% | Amoxicillin released in solution #3 ([1]; 10 min, trihydrate): 99.73% | Amoxicillin released in solution Mean ([1]; 15 min, trihydrate): 99.12% | Amoxicillin released in solution #1 ([1]; 15 min, trihydrate): 99.28% | Amoxicillin released in solution #2 ([1]; 15 min, trihydrate): 98.69% | Amoxicillin released in solution #3 ([1]; 15 min, trihydrate): 99.38% | Amoxicillin released in solution Mean ([1]; 30 min, trihydrate): 99.31% | Amoxicillin released in solution #1 ([1]; 30 min, trihydrate): 99.50% | Amoxicillin released in solution #2 ([1]; 30 min, trihydrate): 99.56% | Amoxicillin released in solution #3 ([1]; 30 min, trihydrate): 98.87% | Amoxicillin released in solution Mean ([1]; 60 min, trihydrate): 99.25% | Amoxicillin released in solution #1 ([1]; 60 min, trihydrate): 99.56% | Amoxicillin released in solution #2 ([1]; 60 min, trihydrate): 99.10% | Amoxicillin released in solution #3 ([1]; 60 min, trihydrate): 99.10% | Amoxicillin released in solution Mean ([1]; 90 min, trihydrate): 99.76% | Amoxicillin released in solution #1 ([1]; 90 min, trihydrate): 99.93% | Amoxicillin released in solution #2 ([1]; 90 min, trihydrate): 99.61% | Amoxicillin released in solution #3 ([1]; 90 min, trihydrate): 99.74% | Average Particle Size D10 [2]: 12.3 μm | Average Particle Size D50 [2]: 39.8 μm | Average Particle Size D90 [2]: 93.3 μm | Average Particle Size D100 [2]: 275.9 μm | Surface Area Mean ± SD (n = 3) [3]: 0.58 ± 0.09 m^2 · g^−1 | Contact Angle Mean ± SD (n = 4) [4]: 75.50 ± 2.95

CC1(C)S[C@@H]2[C@H](NC(=O)[C@H](N)c3ccc(O)cc3)C(=O)N2[C@H]1C(=O)O.O.O.O [entry 2, amoxicillin trihydrate]
Amoxicillin released in solution Mean ([1]; 0 min): 0% | Amoxicillin released in solution #1 ([1]; 0 min): 0% | Amoxicillin released in solution #2 ([1]; 0 min): 0% | Amoxicillin released in solution #3 ([1]; 0 min): 0% | Amoxicillin released in solution Mean ([1]; 1 min, trihydrate): 61.71% | Amoxicillin released in solution #1 ([1]; 1 min, trihydrate): 61.68% | Amoxicillin released in solution #2 ([1]; 1 min, trihydrate): 61.21% | Amoxicillin released in solution #3 ([1]; 1 min, trihydrate): 62.23% | Amoxicillin released in solution Mean ([1]; 3 min, trihydrate): 99.69% | Amoxicillin released in solution #1 ([1]; 3 min, trihydrate): 99.58% | Amoxicillin released in solution #2 ([1]; 3 min, trihydrate): 99.88% | Amoxicillin released in solution #3 ([1]; 3 min, trihydrate): 99.60% | Amoxicillin released in solution Mean ([1]; 5 min, trihydrate): 98.99% | Amoxicillin released in solution #1 ([1]; 5 min, trihydrate): 99.89% | Amoxicillin released in solution #2 ([1]; 5 min, trihydrate): 99.79% | Amoxicillin released in solution #3 ([1]; 5 min, trihydrate): 97.29% | Amoxicillin released in solution Mean ([1]; 10 min, trihydrate): 99.66% | Amoxicillin released in solution #1 ([1]; 10 min, trihydrate): 99.66% | Amoxicillin released in solution #2 ([1]; 10 min, trihydrate): 98.95% | Amoxicillin released in solution #3 ([1]; 10 min, trihydrate): 100.36% | Amoxicillin released in solution Mean ([1]; 15 min, trihydrate): 99.43% | Amoxicillin released in solution #1 ([1]; 15 min, trihydrate): 99.51% | Amoxicillin released in solution #2 ([1]; 15 min, trihydrate): 98.98% | Amoxicillin released in solution #3 ([1]; 15 min, trihydrate): 99.80% | Amoxicillin released in solution Mean ([1]; 30 min, trihydrate): 99.33% | Amoxicillin released in solution #1 ([1]; 30 min, trihydrate): 99.65% | Amoxicillin released in solution #2 ([1]; 30 min, trihydrate): 99.00% | Amoxicillin released in solution #3 ([1]; 30 min, trihydrate): 99.34% | Amoxicillin released in solution Mean ([1]; 60 min, trihydrate): 99.45% | Amoxicillin released in solution #1 ([1]; 60 min, trihydrate): 99.56% | Amoxicillin released in solution #2 ([1]; 60 min, trihydrate): 99.17% | Amoxicillin released in solution #3 ([1]; 60 min, trihydrate): 99.60% | Amoxicillin released in solution Mean ([1]; 90 min, trihydrate): 99.15% | Amoxicillin released in solution #1 ([1]; 90 min, trihydrate): 99.24% | Amoxicillin released in solution #2 ([1]; 90 min, trihydrate): 99.24% | Amoxicillin released in solution #3 ([1]; 90 min, trihydrate): 98.96% | Average Particle Size D10 [2]: 13.5 μm | Average Particle Size D50 [2]: 40.6 μm | Average Particle Size D90 [2]: 94.3 μm | Average Particle Size D100 [2]: 237.5 μm | Surface Area Mean ± SD (n = 3) [3]: 0.69 ± 0.03 m^2 · g^−1 | Contact Angle Mean ± SD (n = 4) [4]: 67.70 ± 1.39
